Values of other authors as cited in patent US20200016107A1, “COMPOSITION AND METHOD FOR THE TOPICAL TREATMENT OF SEVERE ACNE” (CENTRO INTTERNACIONAL DE COSMIATRÍA, S.A.P.I. DE C.V., priority 2017, published 2020).

Test system: sebaceous gland
Conditions: oral administration

CC1=C(/C=C/C(C)=C/C=C/C(C)=C\C(=O)O)C(C)(C)CCC1 [13-cis-retinoic acid]
effect on sebaceous gland secretion: almost completely suppresses this secretion
patients with marked improvement: ~100%
